Data published in US4973668A, “Variants of alpha 1-antitrypsin which are useful, in particular, as kallikrein inhibitors” (Transgene S.A., priority 1986, dated 1990).
“Also recorded” adds a separate entry of the source.

Columns and labels:
human thrombin [1] = details: general statement on the earlier variant; cited from earlier work
kallikrein = details: ratio versus C1 inhibitor; cited from earlier work
factor XIIF = details: ratio versus C1 inhibitor; cited from earlier work
[2] = tested on: human neutrophil elastase; assay: inhibition of human neutrophil elastase by E. coli extracts; format: biochemical; details: clarified sonicated E. coli extracts; FIG. 1; compared with normal (Met358)alpha1-AT
Method: Clarified sonicated extracts were prepared from induced cultures of E. coli TGE900 containing one of the above three plasmids.
Aliquots of extracts are tested for their capacity to inhibit human neutrophil elastase (this technique having already been described).

human plasma kallikrein = assay: antikallikrein activity, residual hydrolysis of chromozyme PK at 410 nm; format: biochemical
Method: The antikallikrein activity is assessed by measuring at 410 nm the residual extent of hydrolysis of chromosyme PK (benzoyl-Pro-Pre-Arg-4-nitroanilide acetate, Boehringer Mannheim).
2.6 pmol of human plasma kallikrein are preincubated at 37° C. with an increasing amount of inhibitor in 0.1 M Na phosphate/0.15 M NaCl buffer. After 30 minutes, the reaction is stopped by adding […] of substrate (final concentration 0.5 mM) and the residual enzyme activity is determined.

human thrombin [3] = assay: thrombin inhibition curves; format: biochemical; details: FIG. 3; comparison with alpha1-AT(Arg358)

For “(Arg^358)alpha1 -AT: human alpha1-antitrypsin variant with Met358 replaced by arginine, described in WO 86/00,337; plasmid pTG1900”, the antithrombin activity (human thrombin [1]) is listed as “very substantial”, the “activity in inactivation of kallikrein relative to C1 inhibitor” value (kallikrein) is listed as 4.1 times and the “activity in inactivation of factor XIIF relative to C1 inhibitor” value (factor XIIF) is listed as 11.5 times.

With “(Ala^357, Arg^358)alpha1 -AT: variant of human alpha1-antitrypsin, Pro357 replaced by Ala and Met358 by Arg, expressed in E. coli from plasmid pTG1946” the “inhibition of neutrophil elastase” value [2] was “incapable of inhibiting”, the inhibition of kallikrein (human plasma kallikrein; 2.6 pmol kallikrein, 37° C., 30 minutes preincubation, FIG. 2) was “very much improved” and the inhibition of kallikrein (human plasma kallikrein; 2.6 pmol kallikrein, 37° C., 30 minutes preincubation; FIG. 2; Arg^358) alpha1 -AT) was “capable of rapidly inhibiting”. The inhibition of thrombin (human thrombin [3]) was “very weak; also recorded: only very weakly”.
